{
  "source": "patent US20250237642A1",
  "about": "(priority 2022, published 2025)",
  "key": {"[1]": {"molecular_target": "T1, HIV-RT Q151M mutation (Human immunodeficiency virus type 1 group M subtype B, UniProt P03366, Q750M)", "conditions": "cited from earlier work"}, "[2]": {"tested_on": "HIV-RT M184V and M184I", "conditions": "cited from earlier work"}, "[3]": {"molecular_target": "T1, HIV-RT Q151M mutation", "conditions": "cited from earlier work", "remark": "listed apart in the source"}, "[4]": {"molecular_target": "HBV core protein mutants (Hepatitis B virus genotype D subtype ayw, UniProt P03146, F23Y)", "conditions": "cited from earlier work"}, "[5]": {"molecular_target": "HBV core protein mutants (Hepatitis B virus genotype D subtype ayw, UniProt P03146, T33Q)", "conditions": "cited from earlier work"}, "[6]": {"molecular_target": "HBV core protein mutants (Hepatitis B virus genotype D subtype ayw, UniProt P03146, L30F)", "conditions": "cited from earlier work"}, "[7]": {"molecular_target": "HBV core protein mutants (Hepatitis B virus genotype D subtype ayw, UniProt P03146, F110I)", "conditions": "cited from earlier work"}, "[8]": {"molecular_target": "T109 mutant (Hepatitis B virus genotype D subtype ayw, UniProt P03146, T109I)"}, "[9]": {"molecular_target": "HBV wild-type (Hepatitis B virus genotype D subtype ayw, UniProt P03146)"}, "[10]": {"molecular_target": "HBV core protein mutants (Hepatitis B virus genotype D subtype ayw, UniProt P03146, T109I)", "conditions": "cited from earlier work"}, "[11]": {"molecular_target": "HBV core protein mutants (Hepatitis B virus genotype D subtype ayw, UniProt P03146, L140I)", "conditions": "cited from earlier work"}, "[12]": {"molecular_target": "HBV core protein mutants (Hepatitis B virus genotype D subtype ayw, UniProt P03146, T128I)", "conditions": "cited from earlier work"}},
  "data": [
    {"smiles": "Nc1nc(=O)n([C@@H]2CS[C@H](CO)O2)cc1F", "note": "[(-)-FTC, emtricitabine]", "values": [
      {"measurement": "fold reduction of EC50", "setting": "[1]", "value": 2, "unit": "fold"},
      {"measurement": "fold resistance", "setting": "[2]", "value": "500-1000 fold"},
      {"measurement": "Enzymatic sensitivity", "setting": "[3]", "value": "remains sensitive"}
    ]},
    {"smiles": "COC(=O)C1=C(C)NC(c2ncc(F)cc2F)=N[C@H]1c1ccc(F)cc1Cl", "note": "[BAY41-4109]", "values": [
      {"measurement": "Reported resistance mutation", "setting": "[4]", "value": "resistance mutations"},
      {"measurement": "Reported resistance mutation", "setting": "[5]", "value": "resistance mutation"},
      {"measurement": "Reported resistance mutation", "setting": "[6]", "value": "resistance mutations"},
      {"measurement": "Reported resistance mutation", "setting": "[7]", "value": "reported"}
    ]},
    {"smiles": "C#CCNC(=O)C(=O)c1c(C)c(C(=O)Nc2ccc(F)c(F)c2)n(C)c1C", "note": "[GLP-26]", "values": [
      {"measurement": "Reduction of cccDNA", "setting": "[8]", "value": "susceptible"},
      {"measurement": "Effect on HBeAg production (sensitive / resistant)", "setting": "[9]", "value": "Sensitive"}
    ]},
    {"smiles": "CCOC(=O)C1=C(CN2CCOCC2)NC(c2nccs2)=NC1c1ccc(F)cc1Br", "note": "(stereo not drawn) [GLS4]", "values": [
      {"measurement": "Reported resistance mutation", "setting": "[10]", "value": "resistant"}
    ]},
    {"smiles": "C[C@H](NS(=O)(=O)c1cc(C(=O)Nc2ccc(F)c(C#N)c2)n(C)c1)C(F)(F)F", "note": "[JNJ-6379]", "values": [
      {"measurement": "Reported resistance mutation", "setting": "[11]", "value": "reported"},
      {"measurement": "Reported resistance mutation", "setting": "[4]", "value": "resistance mutations"},
      {"measurement": "Reported resistance mutation", "setting": "[6]", "value": "resistance mutations"},
      {"measurement": "Reported resistance mutation", "setting": "[7]", "value": "reported"},
      {"measurement": "Reported resistance mutation", "setting": "[12]", "value": "reported"}
    ]}
  ]
}
